Molecules are shown by their SMILES.

What all share (assay): kinome screen (33PanQinase)
Common to all, as to assay type: biochemical

For one assay, the target named is T1, GRK7 (Homo sapiens, UniProt Q8WTQ7).
T1 construct: purchased Reaction Biology Europe GmbH (formerly ProQinase)
T1 sequence (Q8WTQ7 1-553): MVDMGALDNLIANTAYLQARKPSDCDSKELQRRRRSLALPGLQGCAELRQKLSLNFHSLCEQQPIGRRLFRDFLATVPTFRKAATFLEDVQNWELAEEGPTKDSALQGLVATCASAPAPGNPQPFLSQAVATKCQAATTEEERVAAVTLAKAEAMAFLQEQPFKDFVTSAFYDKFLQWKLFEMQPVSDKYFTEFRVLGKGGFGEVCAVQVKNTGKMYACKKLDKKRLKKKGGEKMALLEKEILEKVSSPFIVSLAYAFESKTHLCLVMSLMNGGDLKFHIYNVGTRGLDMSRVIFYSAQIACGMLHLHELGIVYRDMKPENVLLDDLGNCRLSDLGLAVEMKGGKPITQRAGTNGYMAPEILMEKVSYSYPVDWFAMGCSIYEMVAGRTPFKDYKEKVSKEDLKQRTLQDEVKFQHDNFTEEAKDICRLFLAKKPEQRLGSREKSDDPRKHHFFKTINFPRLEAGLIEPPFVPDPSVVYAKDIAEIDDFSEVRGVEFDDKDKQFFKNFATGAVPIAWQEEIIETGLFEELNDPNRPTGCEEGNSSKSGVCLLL
Here is the method:
(§1) The Kinome Screening was performed by Reaction Biology Europe GmbH (http://reactionbiology.com; Freiburg i. Br., Germany).

A further assay concerns the target T2, DAPK2 (Homo sapiens, UniProt Q9UIK4).
T2 construct: purchased Reaction Biology Europe GmbH (formerly ProQinase)
As to the method:
as §1

The target in the next assay is T3, ULK2 (Homo sapiens, UniProt Q8IYT8).
T3 construct: purchased Reaction Biology Europe GmbH (formerly ProQinase)
T3 sequence (Q8IYT8 1-1036): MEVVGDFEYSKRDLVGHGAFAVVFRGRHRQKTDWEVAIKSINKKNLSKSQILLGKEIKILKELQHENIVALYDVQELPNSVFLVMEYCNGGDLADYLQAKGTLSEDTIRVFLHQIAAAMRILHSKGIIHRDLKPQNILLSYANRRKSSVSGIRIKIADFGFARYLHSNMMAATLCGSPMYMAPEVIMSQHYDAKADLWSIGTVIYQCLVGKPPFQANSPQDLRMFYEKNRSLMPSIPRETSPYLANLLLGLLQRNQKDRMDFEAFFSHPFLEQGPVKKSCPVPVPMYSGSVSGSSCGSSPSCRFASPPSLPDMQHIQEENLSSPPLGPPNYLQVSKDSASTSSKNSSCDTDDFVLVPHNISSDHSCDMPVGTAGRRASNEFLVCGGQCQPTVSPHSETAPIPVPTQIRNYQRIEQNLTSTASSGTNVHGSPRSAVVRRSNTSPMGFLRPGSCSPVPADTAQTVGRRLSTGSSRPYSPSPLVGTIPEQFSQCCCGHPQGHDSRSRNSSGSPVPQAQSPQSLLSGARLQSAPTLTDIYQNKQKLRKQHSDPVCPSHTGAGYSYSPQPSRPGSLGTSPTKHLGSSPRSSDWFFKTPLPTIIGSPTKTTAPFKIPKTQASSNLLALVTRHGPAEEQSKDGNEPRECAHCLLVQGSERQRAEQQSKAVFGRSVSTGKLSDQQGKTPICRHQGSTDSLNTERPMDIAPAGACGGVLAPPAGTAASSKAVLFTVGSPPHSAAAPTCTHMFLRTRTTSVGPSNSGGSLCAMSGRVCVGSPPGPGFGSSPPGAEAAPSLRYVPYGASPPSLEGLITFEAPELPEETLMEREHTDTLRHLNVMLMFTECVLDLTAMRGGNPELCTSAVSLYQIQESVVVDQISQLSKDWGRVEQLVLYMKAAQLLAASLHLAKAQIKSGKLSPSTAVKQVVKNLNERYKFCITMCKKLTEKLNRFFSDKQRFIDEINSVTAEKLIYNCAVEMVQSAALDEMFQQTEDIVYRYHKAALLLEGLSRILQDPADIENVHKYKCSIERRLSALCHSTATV
As to the method: as §1

The target in a further assay is T4, ZAK (Homo sapiens, UniProt Q9NYL2).
T4 construct: purchased Reaction Biology Europe GmbH (formerly ProQinase)
Here is the method: as §1

In another assay the target is T5, PKCΔ (Homo sapiens, UniProt Q05655).
T5 construct: purchased Reaction Biology Europe GmbH (formerly ProQinase)
Here is the method: as §1

The next assay has as its target T6, CK1ε (Homo sapiens, UniProt P49674).
T6 construct: purchased Reaction Biology Europe GmbH (formerly ProQinase)
As to the method: as §1

A further assay concerns the target T7, RPS6KA4 (Homo sapiens, UniProt O75676).
T7 construct: purchased Reaction Biology Europe GmbH (formerly ProQinase)
As to the method:
as §1

In a further assay the target is T8, EIF2AK2 (Homo sapiens, UniProt P19525).
T8 construct: purchased Reaction Biology Europe GmbH (formerly ProQinase)
As to the method:
as §1

A further assay has as its target T9, EPHA4 (Homo sapiens, UniProt P54764).
T9 construct: purchased Reaction Biology Europe GmbH (formerly ProQinase)
Here is the method:
as §1

A further assay concerns the target T10, NEK3 (Homo sapiens, UniProt P51956).
T10 construct: purchased Reaction Biology Europe GmbH (formerly ProQinase)
T10 sequence (P51956 1-506): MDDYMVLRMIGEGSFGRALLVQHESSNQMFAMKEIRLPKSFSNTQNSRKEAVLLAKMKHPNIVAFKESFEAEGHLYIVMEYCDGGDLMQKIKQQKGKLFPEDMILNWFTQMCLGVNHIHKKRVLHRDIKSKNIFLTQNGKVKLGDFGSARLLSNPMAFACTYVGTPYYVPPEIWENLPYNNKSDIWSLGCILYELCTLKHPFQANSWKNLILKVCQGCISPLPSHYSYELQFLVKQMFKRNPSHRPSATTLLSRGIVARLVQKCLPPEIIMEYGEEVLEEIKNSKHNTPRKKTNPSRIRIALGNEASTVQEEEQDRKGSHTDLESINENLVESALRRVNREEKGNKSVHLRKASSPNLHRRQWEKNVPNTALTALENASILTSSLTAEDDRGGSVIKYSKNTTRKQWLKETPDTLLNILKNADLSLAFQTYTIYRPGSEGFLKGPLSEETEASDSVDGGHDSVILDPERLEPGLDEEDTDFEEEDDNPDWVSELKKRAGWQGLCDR
As to the method: as §1

The target of another assay is T11, CLK3 (Homo sapiens, UniProt P49761).
T11 construct: purchased Reaction Biology Europe GmbH (formerly ProQinase)
As to the method: as §1

Another assay addresses T12, TTBK2 (Homo sapiens, UniProt Q6IQ55).
T12 construct: purchased Reaction Biology Europe GmbH (formerly ProQinase)
Here is the method: as §1

T9 sequence (P54764 20-986): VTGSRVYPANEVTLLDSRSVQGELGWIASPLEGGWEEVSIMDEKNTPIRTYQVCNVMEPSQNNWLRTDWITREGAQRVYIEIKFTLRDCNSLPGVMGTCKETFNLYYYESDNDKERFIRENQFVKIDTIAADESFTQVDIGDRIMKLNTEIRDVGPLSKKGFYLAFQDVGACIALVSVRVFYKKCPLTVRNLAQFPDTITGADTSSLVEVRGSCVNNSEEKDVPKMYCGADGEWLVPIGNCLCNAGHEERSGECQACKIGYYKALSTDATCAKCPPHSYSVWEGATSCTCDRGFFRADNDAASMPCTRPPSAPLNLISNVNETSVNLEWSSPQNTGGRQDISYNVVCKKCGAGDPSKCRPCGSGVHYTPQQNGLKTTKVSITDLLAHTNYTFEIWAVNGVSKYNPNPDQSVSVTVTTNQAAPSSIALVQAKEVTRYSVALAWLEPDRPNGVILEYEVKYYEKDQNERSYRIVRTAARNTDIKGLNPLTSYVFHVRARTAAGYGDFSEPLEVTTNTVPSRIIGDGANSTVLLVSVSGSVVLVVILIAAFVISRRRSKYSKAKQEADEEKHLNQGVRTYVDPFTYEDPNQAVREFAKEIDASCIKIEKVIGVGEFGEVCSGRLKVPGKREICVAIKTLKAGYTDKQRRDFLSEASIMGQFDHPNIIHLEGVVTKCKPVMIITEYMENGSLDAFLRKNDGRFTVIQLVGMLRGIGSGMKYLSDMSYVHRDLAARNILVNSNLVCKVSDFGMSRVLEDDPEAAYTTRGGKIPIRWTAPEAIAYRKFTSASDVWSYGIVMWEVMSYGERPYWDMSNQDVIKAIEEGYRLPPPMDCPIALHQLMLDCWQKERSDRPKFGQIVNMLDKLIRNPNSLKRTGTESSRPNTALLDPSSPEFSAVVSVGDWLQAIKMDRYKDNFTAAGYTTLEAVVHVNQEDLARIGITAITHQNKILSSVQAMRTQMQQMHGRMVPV
T5 sequence (Q05655 whole entry, stated change not applied): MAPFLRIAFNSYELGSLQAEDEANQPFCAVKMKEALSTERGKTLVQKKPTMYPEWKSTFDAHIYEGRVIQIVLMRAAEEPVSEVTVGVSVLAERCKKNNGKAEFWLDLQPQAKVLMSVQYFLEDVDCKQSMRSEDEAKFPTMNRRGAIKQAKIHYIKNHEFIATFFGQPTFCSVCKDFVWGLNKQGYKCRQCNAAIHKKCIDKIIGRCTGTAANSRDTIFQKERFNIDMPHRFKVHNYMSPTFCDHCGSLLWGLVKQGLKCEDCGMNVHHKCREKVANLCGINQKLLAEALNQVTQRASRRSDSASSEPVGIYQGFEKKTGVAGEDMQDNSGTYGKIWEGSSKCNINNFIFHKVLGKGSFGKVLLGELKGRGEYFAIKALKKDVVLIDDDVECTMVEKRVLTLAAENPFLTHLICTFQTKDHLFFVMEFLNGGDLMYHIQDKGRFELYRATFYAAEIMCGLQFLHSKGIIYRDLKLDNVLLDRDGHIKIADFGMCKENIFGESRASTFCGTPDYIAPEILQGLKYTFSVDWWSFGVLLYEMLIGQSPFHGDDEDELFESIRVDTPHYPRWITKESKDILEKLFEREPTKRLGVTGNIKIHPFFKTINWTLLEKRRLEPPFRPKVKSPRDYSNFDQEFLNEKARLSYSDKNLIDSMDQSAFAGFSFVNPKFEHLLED
T6 sequence (P49674 whole entry): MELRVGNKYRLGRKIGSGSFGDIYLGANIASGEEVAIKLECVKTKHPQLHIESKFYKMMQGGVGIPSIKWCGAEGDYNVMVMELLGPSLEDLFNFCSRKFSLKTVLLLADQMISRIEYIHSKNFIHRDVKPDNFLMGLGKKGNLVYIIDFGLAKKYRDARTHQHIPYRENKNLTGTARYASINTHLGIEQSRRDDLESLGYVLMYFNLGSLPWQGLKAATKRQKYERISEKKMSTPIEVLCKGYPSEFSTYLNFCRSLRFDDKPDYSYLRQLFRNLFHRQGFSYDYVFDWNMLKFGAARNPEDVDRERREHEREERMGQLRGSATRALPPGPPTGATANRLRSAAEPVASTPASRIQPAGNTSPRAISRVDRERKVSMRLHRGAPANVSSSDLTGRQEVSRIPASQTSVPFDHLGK
T8 sequence (P19525 whole entry): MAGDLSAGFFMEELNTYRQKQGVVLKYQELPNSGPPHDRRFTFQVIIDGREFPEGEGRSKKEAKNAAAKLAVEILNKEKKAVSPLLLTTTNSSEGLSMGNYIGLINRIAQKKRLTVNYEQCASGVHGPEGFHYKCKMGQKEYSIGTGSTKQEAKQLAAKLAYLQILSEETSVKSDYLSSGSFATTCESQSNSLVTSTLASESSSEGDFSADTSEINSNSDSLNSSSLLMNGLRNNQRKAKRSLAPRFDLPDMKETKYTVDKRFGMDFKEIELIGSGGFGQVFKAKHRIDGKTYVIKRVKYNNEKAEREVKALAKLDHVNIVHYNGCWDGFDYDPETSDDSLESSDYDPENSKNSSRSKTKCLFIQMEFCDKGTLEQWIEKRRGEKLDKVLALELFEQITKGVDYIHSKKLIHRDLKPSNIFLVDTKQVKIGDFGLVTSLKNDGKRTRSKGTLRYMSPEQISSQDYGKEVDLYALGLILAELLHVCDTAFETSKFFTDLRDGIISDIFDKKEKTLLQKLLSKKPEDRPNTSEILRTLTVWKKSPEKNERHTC
T7 sequence (O75676 whole entry): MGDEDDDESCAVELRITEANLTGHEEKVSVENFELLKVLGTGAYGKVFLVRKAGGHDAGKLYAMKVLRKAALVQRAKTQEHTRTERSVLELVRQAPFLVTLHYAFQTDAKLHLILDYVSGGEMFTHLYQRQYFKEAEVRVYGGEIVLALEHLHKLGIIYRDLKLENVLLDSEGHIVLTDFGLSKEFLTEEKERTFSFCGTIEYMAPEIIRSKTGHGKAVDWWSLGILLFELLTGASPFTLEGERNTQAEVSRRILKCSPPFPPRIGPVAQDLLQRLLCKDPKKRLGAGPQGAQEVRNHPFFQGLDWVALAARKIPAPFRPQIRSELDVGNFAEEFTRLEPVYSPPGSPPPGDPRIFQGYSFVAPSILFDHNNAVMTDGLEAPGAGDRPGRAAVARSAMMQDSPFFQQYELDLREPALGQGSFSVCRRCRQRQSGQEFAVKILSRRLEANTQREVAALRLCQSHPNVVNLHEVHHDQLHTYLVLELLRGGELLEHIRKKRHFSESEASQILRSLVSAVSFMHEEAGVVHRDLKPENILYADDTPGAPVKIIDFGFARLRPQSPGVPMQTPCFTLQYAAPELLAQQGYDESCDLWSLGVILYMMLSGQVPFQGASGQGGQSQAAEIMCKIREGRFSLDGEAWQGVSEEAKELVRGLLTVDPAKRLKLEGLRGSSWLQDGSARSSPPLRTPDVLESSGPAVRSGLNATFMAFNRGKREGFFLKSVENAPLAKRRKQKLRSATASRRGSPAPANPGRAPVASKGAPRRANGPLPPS
T2 sequence (Q9UIK4 whole entry): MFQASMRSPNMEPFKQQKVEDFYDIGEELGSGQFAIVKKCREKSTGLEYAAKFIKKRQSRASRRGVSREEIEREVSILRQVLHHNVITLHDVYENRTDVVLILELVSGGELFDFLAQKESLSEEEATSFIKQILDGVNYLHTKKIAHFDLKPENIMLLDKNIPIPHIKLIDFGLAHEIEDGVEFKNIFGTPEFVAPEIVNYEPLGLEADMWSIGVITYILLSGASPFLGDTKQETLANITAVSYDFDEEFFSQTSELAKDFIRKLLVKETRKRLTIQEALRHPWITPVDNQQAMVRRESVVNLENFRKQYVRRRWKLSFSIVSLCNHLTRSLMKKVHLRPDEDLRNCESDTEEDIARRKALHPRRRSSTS
T11 sequence (P49761 whole entry): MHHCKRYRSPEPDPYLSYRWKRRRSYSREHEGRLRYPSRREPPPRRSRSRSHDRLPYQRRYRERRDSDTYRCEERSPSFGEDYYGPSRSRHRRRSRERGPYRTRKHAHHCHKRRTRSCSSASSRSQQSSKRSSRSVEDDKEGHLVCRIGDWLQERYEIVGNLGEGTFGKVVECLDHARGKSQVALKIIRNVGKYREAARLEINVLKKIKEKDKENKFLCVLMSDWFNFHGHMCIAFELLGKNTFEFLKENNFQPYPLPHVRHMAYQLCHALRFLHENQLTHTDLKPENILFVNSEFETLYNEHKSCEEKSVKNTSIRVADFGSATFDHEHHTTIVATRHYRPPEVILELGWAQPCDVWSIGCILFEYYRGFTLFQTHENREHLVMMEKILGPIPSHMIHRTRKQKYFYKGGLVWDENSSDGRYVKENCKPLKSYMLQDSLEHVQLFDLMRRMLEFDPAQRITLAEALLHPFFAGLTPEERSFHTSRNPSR
T4 sequence (Q9NYL2 whole entry): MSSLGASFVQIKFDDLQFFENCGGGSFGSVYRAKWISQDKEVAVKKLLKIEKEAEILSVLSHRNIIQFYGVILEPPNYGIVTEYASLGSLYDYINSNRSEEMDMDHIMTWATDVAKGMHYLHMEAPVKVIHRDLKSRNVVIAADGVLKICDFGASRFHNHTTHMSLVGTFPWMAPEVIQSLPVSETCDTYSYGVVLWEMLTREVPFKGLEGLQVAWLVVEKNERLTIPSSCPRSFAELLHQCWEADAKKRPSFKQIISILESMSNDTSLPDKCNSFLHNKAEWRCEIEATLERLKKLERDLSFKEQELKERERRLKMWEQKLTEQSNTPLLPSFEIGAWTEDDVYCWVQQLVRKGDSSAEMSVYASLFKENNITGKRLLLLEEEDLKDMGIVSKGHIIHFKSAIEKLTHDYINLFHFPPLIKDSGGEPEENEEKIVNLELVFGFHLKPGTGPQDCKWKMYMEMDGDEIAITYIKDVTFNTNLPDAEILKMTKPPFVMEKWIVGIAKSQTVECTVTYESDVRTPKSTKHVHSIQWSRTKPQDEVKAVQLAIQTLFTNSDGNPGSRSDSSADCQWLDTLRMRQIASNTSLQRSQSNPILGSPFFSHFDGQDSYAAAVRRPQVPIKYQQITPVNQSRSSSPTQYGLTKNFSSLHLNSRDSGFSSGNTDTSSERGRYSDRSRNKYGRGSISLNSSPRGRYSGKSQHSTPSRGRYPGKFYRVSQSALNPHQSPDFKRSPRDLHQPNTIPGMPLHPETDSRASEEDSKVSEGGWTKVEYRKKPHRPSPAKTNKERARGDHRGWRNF

On to `c1ccc(CNc2cc(-c3c[nH]c4ncccc34)ccn2)cc1` [meriolin 36], for which the residual kinase activity is reported as 94 % of control at GRK7 (0.3 µM); 48 % of control at GRK7 (3 µM); 118 % of control at DAPK2 (0.3 µM); 67 % of control on DAPK2 (3 µM); 82 % of control on ULK2 (0.3 µM); 45 % of control on ULK2 (3 µM). The residual kinase activity on ZAK (0.3 µM) is reported as 57 % of control; on ZAK (3 µM), 14 % of control; at PKCΔ (0.3 µM) it was 4 % of control; at PKCΔ (3 µM) it was 0 % of control; on CK1ε (0.3 µM), 86 % of control; on CK1ε (3 µM) it was 23 % of control. Further, the residual kinase activity was 71 % of control at RPS6KA4 (0.3 µM); 29 % of control on RPS6KA4 (3 µM); 79 % of control at EIF2AK2 (0.3 µM); 63 % of control at EIF2AK2 (3 µM); 93 % of control at EPHA4 (0.3 µM); 72 % of control on EPHA4 (3 µM). The residual kinase activity at NEK3 (0.3 µM) was 94 % of control; at NEK3 (3 µM) it was 79 % of control; on CLK3 (0.3 µM), 13 % of control; at CLK3 (3 µM), 1 % of control; on TTBK2 (0.3 µM) it was 93 % of control; on TTBK2 (3 µM), 56 % of control.
For the compound `COc1ccnc2[nH]cc(-c3cc(N)nc(N)c3)c12` [meriolin 16], the residual kinase activity on GRK7 (0.03 µM) is 105 % of control; on GRK7 (0.3 µM), 78 % of control; on DAPK2 (0.03 µM) it was 106 % of control; at DAPK2 (0.3 µM) it was 78 % of control; on ULK2 (0.03 µM), 96 % of control; at ULK2 (0.3 µM), 54 % of control. Moreover, the residual kinase activity at ZAK (0.03 µM) is recorded as 96 % of control; at ZAK (0.3 µM) it was 83 % of control; at PKCΔ (0.03 µM), 47 % of control; on PKCΔ (0.3 µM) it was 6 % of control; at CK1ε (0.03 µM), 112 % of control; at CK1ε (0.3 µM), 41 % of control. For the same compound, the residual kinase activity on RPS6KA4 (0.03 µM) is 90 % of control; on RPS6KA4 (0.3 µM) it was 89 % of control; at EIF2AK2 (0.03 µM) it was 83 % of control; at EIF2AK2 (0.3 µM) it was 95 % of control; at EPHA4 (0.03 µM), 105 % of control; on EPHA4 (0.3 µM) it was 85 % of control. In addition, the residual kinase activity on NEK3 (0.03 µM) was 96 % of control; at NEK3 (0.3 µM), 78 % of control; at CLK3 (0.03 µM), 94 % of control; on CLK3 (0.3 µM) it was 36 % of control; at TTBK2 (0.03 µM), 96 % of control; at TTBK2 (0.3 µM), 91 % of control.

The values above are taken from article PMC11167047 (Cell Death Discovery, 2024).
